18 molecules from PubChem BioAssay AID248 (DTP/NCI, 2004) can be followed below.

Several values for one entry are separate records, joined by “and”; a condition that tells them apart may be missing. Equal entries are not always repeated. Toxic doses and inconclusive results are not listed.

The assay relates to L1210 leukemia ip in BDF1 mice, survival T/C. Kind of assay: NCI In Vivo Anticancer Drug Screen. Data for tumor model L1210 Leukemia (intraperitoneal) in B6D2F1 (BDF1) mice. The note with it: endpoint: mean survival time, higher = longer survival. The method in brief: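 Survival endpoint. Drug-treated group vs vehicle group, expressed as T divided by C. Tumor passaged by transplantation.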

Setting [1] is: dose: 100.0 mg/kg/injection, schedule: Q04DX002 (ip), vehicle: Klucel (hydroxypropylcellulose) (HPC).
Where [2] appears, read: dose: 200.0 mg/kg/injection, schedule: Q04DX002 (ip), vehicle: Klucel (hydroxypropylcellulose) (HPC).
Where [3] appears, read: dose: 100.0 mg/kg/injection, schedule: Q01DX009 (ip), vehicle: saline with Tween-80.
Where [4] appears, read: dose: 200.0 mg/kg/injection, schedule: Q01DX009 (ip), vehicle: saline with Tween-80.
[5] abbreviates: dose: 400.0 mg/kg/injection, schedule: Q04DX002 (ip), vehicle: Klucel (hydroxypropylcellulose) (HPC).
Setting [6] is: dose: 0.75 mg/kg/injection, schedule: Q01DX Z (ip), vehicle: carboxymethylcellulose (CMC).
Setting [7] is: dose: 1.5 mg/kg/injection, schedule: Q01DX Z (ip), vehicle: carboxymethylcellulose (CMC).
Where [8] appears, read: dose: 3.0 mg/kg/injection, schedule: Q01DX Z (ip), vehicle: carboxymethylcellulose (CMC).
The mark [9] stands for this setting: dose: 6.0 mg/kg/injection, schedule: Q01DX Z (ip), vehicle: carboxymethylcellulose (CMC).
[10] abbreviates: dose: 100.0 mg/kg/injection, schedule: Q04DX003 (ip), vehicle: Klucel (hydroxypropylcellulose) (HPC).
Setting [11] is: dose: 200.0 mg/kg/injection, schedule: Q04DX003 (ip), vehicle: Klucel (hydroxypropylcellulose) (HPC).
Where [12] appears, read: dose: 400.0 mg/kg/injection, schedule: Q04DX003 (ip), vehicle: Klucel (hydroxypropylcellulose) (HPC).
Where [13] appears, read: dose: 100.0 mg/kg/injection, schedule: Q04DX002 (ip), vehicle: gum acacia.
Setting [14] is: dose: 200.0 mg/kg/injection, schedule: Q04DX002 (ip), vehicle: gum acacia.
[15] abbreviates: dose: 400.0 mg/kg/injection, schedule: Q04DX002 (ip), vehicle: gum acacia.

As to `O=C(O)C12CCC1(Cl)CC2` (centres undefined), the T/C (dose: 50.0 mg/kg/injection, schedule: Q04DX002 (ip), vehicle: Klucel (hydroxypropylcellulose) (HPC)) is 104 % of control; the T/C under setting [1] was 97 % of control; the T/C under setting [2] was 108 % of control.
Take `N#CCCP(CCC#N)CCCCCCP(CCC#N)CCC#N`: the T/C by setting is: (dose: 25.0 mg/kg/injection, schedule: Q04DX003 (ip), vehicle: saline with Tween-80) 97 % of control; (dose: 50.0 mg/kg/injection, schedule: Q04DX003 (ip), vehicle: saline with Tween-80) 90 % of control; (dose: 100.0 mg/kg/injection, schedule: Q04DX003 (ip), vehicle: saline with Tween-80) 96 % of control and 90 % of control.
`O=C(O)c1cccc([N+](=O)[O-])c1C(=O)O`: the T/C under setting [3] is 95 % of control; the T/C under setting [1] was 98 % of control; the T/C under setting [4] was 95 % of control; the T/C under setting [2] is 88 % of control; the T/C under setting [5] was 88 % of control.
As for `O=C(Nc1cccc(C2=NCCN2)c1)c1ccc(C(=O)Nc2cccc(C3=NCCN3)c2)c(Cl)c1`, the T/C by setting is: under setting [6], 101 % of control; (dose: 1.0 mg/kg/injection, schedule: Q01DX009 (ip), vehicle: saline) 97 % of control; under setting [7], 95 % of control and 104 % of control; (dose: 2.0 mg/kg/injection, schedule: Q01DX009 (ip), vehicle: saline) 97 % of control; under setting [8], 96 % of control and 98 % of control; (dose: 4.0 mg/kg/injection, schedule: Q01DX009 (ip), vehicle: saline) 95 % of control. Moreover, the T/C by setting is: under setting [9], 93 % of control and 96 % of control; (dose: 8.0 mg/kg/injection, schedule: Q01DX009 (ip), vehicle: saline) 94 % of control; (dose: 9.0 mg/kg/injection, schedule: Q01DX Z (ip), vehicle: methylcellulose (MC)) 93 % of control; (dose: 12.0 mg/kg/injection, schedule: Q01DX Z (ip), vehicle: carboxymethylcellulose (CMC)) 95 % of control; (dose: 12.0 mg/kg/injection, schedule: Q01DX Z (ip), vehicle: methylcellulose (MC)) 95 % of control; (dose: 18.0 mg/kg/injection, schedule: Q01DX Z (ip), vehicle: methylcellulose (MC)) 109 % of control. For the same molecule, the T/C (dose: 27.0 mg/kg/injection, schedule: Q01DX Z (ip), vehicle: methylcellulose (MC)) was 106 % of control.
As for `COC(=O)c1oc(C(=O)OC)c(OCc2ccccc2)c1OCc1ccccc1`, the T/C was 103 % of control under setting [10], 106 % of control under setting [11] and 95 % of control under setting [12].
Regarding `c1ccc(P(=NC2CCCCCCC2)(c2ccccc2)c2ccccc2)cc1`, the T/C (dose: 100.0 mg/kg/injection, schedule: Q01DX001 (ip), vehicle: saline with Tween-80) is 96 % of control; the T/C (dose: 200.0 mg/kg/injection, schedule: Q01DX001 (ip), vehicle: saline with Tween-80) is 98 % of control; the T/C (dose: 400.0 mg/kg/injection, schedule: Q01DX001 (ip), vehicle: saline with Tween-80) was 105 % of control.
On to `O=C1C2Nc3ccccc3CC2CN1Cc1ccccc1` (centres undefined), for which the T/C is, setting by setting: (dose: 10.0 mg/kg/injection, schedule: Q04DX003 (ip), vehicle: alcohol) 106 % of control; (dose: 20.0 mg/kg/injection, schedule: Q04DX003 (ip), vehicle: alcohol) 99 % of control; (dose: 40.0 mg/kg/injection, schedule: Q04DX003 (ip), vehicle: alcohol) 99 % of control; (dose: 80.0 mg/kg/injection, schedule: Q04DX003 (ip), vehicle: alcohol) 97 % of control; (dose: 160.0 mg/kg/injection, schedule: Q04DX003 (ip), vehicle: alcohol) 100 % of control.
For `CN=C(N)N/N=C/C(C)=N/NC(N)=NC`, the T/C is, setting by setting: (dose: 15.0 mg/kg/injection, schedule: Q01DX Z (ip), vehicle: saline) 96 % of control; (dose: 30.0 mg/kg/injection, schedule: Q01DX Z (ip), vehicle: saline) 106 % of control; (dose: 60.0 mg/kg/injection, schedule: Q01DX Z (ip), vehicle: saline) 104 % of control; (dose: 120.0 mg/kg/injection, schedule: Q01DX Z (ip), vehicle: saline) 95 % of control.
As to `O=C1C=C(NNc2ccccc2)CCC1`, the T/C runs as follows: (dose: 75.0 mg/kg/injection, schedule: Q01DX001 (ip), vehicle: steriod suspending solution) 92 % of control; (dose: 150.0 mg/kg/injection, schedule: Q01DX001 (ip), vehicle: steriod suspending solution) 95 % of control; (dose: 300.0 mg/kg/injection, schedule: Q01DX001 (ip), vehicle: steriod suspending solution) 92 % of control.
As for `O=C(c1ccsc1)C(O)c1ccccc1` (centres undefined), the T/C was 97 % of control (dose: 100.0 mg/kg/injection, schedule: Q01DX001 (ip), vehicle: carboxymethylcellulose (CMC)); 87 % of control (dose: 200.0 mg/kg/injection, schedule: Q01DX001 (ip), vehicle: carboxymethylcellulose (CMC)); 103 % of control (dose: 400.0 mg/kg/injection, schedule: Q01DX001 (ip), vehicle: carboxymethylcellulose (CMC)).
As for `O=NN(CCCl)C(=O)Nc1c[nH]c(=O)[nH]c1=O`, the T/C under setting [6] is 200 % of control; the T/C (dose: 1.0 mg/kg/injection, schedule: Q01DX Z (ip), vehicle: carboxymethylcellulose (CMC)) is 177 % of control; the T/C under setting [7] is 185 % of control; the T/C (dose: 2.0 mg/kg/injection, schedule: Q01DX Z (ip), vehicle: carboxymethylcellulose (CMC)) was 192 % of control; the T/C under setting [8] was 210 % of control and 212 % of control; the T/C under setting [9] was 189 % of control. In addition, the T/C by setting is: (dose: 18.0 mg/kg/injection, schedule: Q01DX Z (ip), vehicle: carboxymethylcellulose (CMC)) 110 % of control; (dose: 20.0 mg/kg/injection, schedule: Q01DX001 (ip), vehicle: carboxymethylcellulose (CMC)) 205 % of control; (dose: 31.0 mg/kg/injection, schedule: Q01DX001 (ip), vehicle: carboxymethylcellulose (CMC)) 155 % of control; (dose: 40.0 mg/kg/injection, schedule: Q01DX001 (ip), vehicle: carboxymethylcellulose (CMC)) 288 % of control; (dose: 50.0 mg/kg/injection, schedule: Q01DX001 (ip), vehicle: carboxymethylcellulose (CMC)) 229 % of control; (dose: 62.0 mg/kg/injection, schedule: Q01DX001 (ip), vehicle: carboxymethylcellulose (CMC)) 231 % of control. Besides, the T/C was 174 % of control (dose: 80.0 mg/kg/injection, schedule: Q01DX001 (ip), vehicle: carboxymethylcellulose (CMC)) and 89 % of control (dose: 125.0 mg/kg/injection, schedule: Q01DX001 (ip), vehicle: carboxymethylcellulose (CMC)).
With `CN1CCCCCC1`, the T/C was 86 % of control (dose: 50.0 mg/kg/injection, schedule: Q01DX009 (ip), vehicle: acetone) and 110 % of control (dose: 100.0 mg/kg/injection, schedule: Q01DX009 (ip), vehicle: acetone).
Take `CCOC(=O)C(=CNc1cccc2cnccc12)C(=O)OCC`: the T/C (dose: 50.0 mg/kg/injection, schedule: Q01DX009 (ip), vehicle: saline with Tween-80) was 91 % of control; the T/C under setting [3] is 88 % of control; the T/C under setting [4] is 88 % of control.
As for `O=C1NC2C1C1c3ccccc3C2C12CC2` (centres undefined), the T/C is 105 % of control under setting [1], 97 % of control under setting [2] and 94 % of control under setting [5].
In the case of `Nc1ccccc1SC1CC(=O)N(c2ccc(Br)cc2)C1=O` (centres undefined), the T/C is 95 % of control under setting [13], 88 % of control under setting [14] and 95 % of control under setting [15].
Consider `O=C(COc1ccc(Cl)cc1Cl)Nc1ccc(Br)cc1`, for which the T/C was 103 % of control under setting [13], 92 % of control under setting [14] and 89 % of control under setting [15].
For the molecule `CC(=O)Nc1ccc(C(=O)C[n+]2ccc3ccccc3c2)cc1`, the T/C is, setting by setting: under setting [10], 97 % of control; under setting [11], 92 % of control; under setting [12], 94 % of control.
`OC1C2c3ccccc3C(c3c2cc(F)c2ccccc32)C1O` (centres undefined): the T/C runs as follows: (dose: 37.5 mg/kg/injection, schedule: Q01DX001 (ip), vehicle: Klucel (hydroxypropylcellulose) (HPC)) 102 % of control; (dose: 75.0 mg/kg/injection, schedule: Q01DX001 (ip), vehicle: Klucel (hydroxypropylcellulose) (HPC)) 96 % of control; (dose: 150.0 mg/kg/injection, schedule: Q01DX001 (ip), vehicle: Klucel (hydroxypropylcellulose) (HPC)) 104 % of control.
